Results on 48 compounds are retold here after PMC11995724, “Antibiotic target discovery by integrated phenotypic and activity-based profiling of electrophilic fragments” (Cell chemical biology, 2025).

This series is described as follows: in vitro. The note with it: human, hek293t cells.
On to `C=CC(=O)NC1CC(CC(F)(F)F)C1` (stereo not drawn) [2-F09, N-[3-(2,2,2-trifluoroethyl)cyclobutyl]prop-2-enamide], for which the viability (as a rule, a read-out of living cells in per cent, often relative to untreated cells) at 48 h, 25 µM worked out at 65.5%.
Take `C=CC(=O)N1CCC(C(=O)N(C)Cc2cc(C(C)(C)C)[nH]n2)CC1` [2-F10, N-[(5-tert-butyl-1H-pyrazol-3-yl)methyl]-N-methyl-1-(prop-2-enoyl)piperidine-4-carboxamide]: the viability at 48 h, 25 µM was 45.6%.
`C=CC(=O)NCc1cn(C(F)F)c2ccccc12` [2-F11, N-{[1-(difluoromethyl)-1H-indol-3-yl]methyl}prop-2-enamide]: the viability at 48 h, 25 µM was 49%.
For the compound `C=CC(=O)N1CCC(C(=O)N2CCCC(CC(N)=O)CC2)CC1` (stereo not drawn) [2-F12, 2-{1-[1-(prop-2-enoyl)piperidine-4-carbonyl]azepan-4-yl}acetamide], the viability at 48 h, 25 µM is 65.1%.
The result for `C=CC(=O)NCc1coc(-c2ccc(C)cc2)n1` [2-F13, N-{[2-(4-methylphenyl)-1,3-oxazol-4-yl]methyl}prop-2-enamide] reads 48.2%; that for `C=CC(=O)N1CCC(C(=O)N(C)C(C)Cc2ccc(C)cc2)CC1` (stereo not drawn) [2-F14, N-methyl-N-[1-(4-methylphenyl)propan-2-yl]-1-(prop-2-enoyl)piperidine-4-carboxamide], 79.5%; that for `C=CC(=O)NCc1cc(Cl)c2c(c1)OCO2` [2-F15, N-[(7-chloro-1,3-dioxaindan-5-yl)methyl]prop-2-enamide], 50.9%.
Take `C=CC(=O)N(C)CC(=O)N1CCC(CN2CCCCC2=O)CC1` [2-F16, N-methyl-N-(2-oxo-2-{4-[(2-oxopiperidin-1-yl)methyl]piperidin-1-yl}ethyl)prop-2-enamide]: the viability at 48 h, 25 µM came out at 57%.
The result for `C=CC(=O)NCC1CNC(=O)c2ccccc21` (stereo not drawn) [2-F17, N-[(1-oxo-1,2,3,4-tetrahydroisoquinolin-4-yl)methyl]prop-2-enamide] reads 54.8%; that for `C=CC(=O)Nc1ccc(-c2nnnn2C)cc1` [2-F18, N-[4-(1-methyl-1H-1,2,3,4-tetrazol-5-yl)phenyl]prop-2-enamide], 95.5%.
The value for `C=CC(=O)NCc1cnc(C)n1-c1ccccc1` [2-F19, N-[(2-methyl-1-phenyl-1H-imidazol-5-yl)methyl]prop-2-enamide] was 49%.
The value for `C=CC(=O)Nc1ccc(C(=O)N[C@@H]2CCN(C(C)=O)C2)cc1` [2-F20, N-[(3R)-1-acetylpyrrolidin-3-yl]-4-(prop-2-enamido)benzamide] was 73.4%; that for `C=CC(=O)Nc1ccnc(OC)c1` [2-F21, N-(2-methoxypyridin-4-yl)prop-2-enamide] was 1.66%; that for `C=CC(=O)NCc1ccc(C(=O)N2CCN(c3nc(C)n[nH]3)CC2)cc1` [2-F22, N-({4-[4-(3-methyl-1H-1,2,4-triazol-5-yl)piperazine-1-carbonyl]phenyl}methyl)prop-2-enamide] was 78.3%.
For the compound `C=CC(=O)N1CCC[C@H]1c1ccon1` [2-G03, 1-[(2S)-2-(1,2-oxazol-3-yl)pyrrolidin-1-yl]prop-2-en-1-one], the viability at 48 h, 25 µM turned out to be 181%.
The result for `C=CC(=O)N1CCC(C(=O)NCC(C)(C)C=C)CC1` [2-G04, N-(2,2-dimethylbut-3-en-1-yl)-1-(prop-2-enoyl)piperidine-4-carboxamide] reads 84.5%.
The result for `C=CC(=O)Nc1nn(CC(C)C)cc1Cl` [2-G05, N-[4-chloro-1-(2-methylpropyl)-1H-pyrazol-3-yl]prop-2-enamide] reads 103%; that for `C=CC(=O)N1Cc2ccccc2C[C@@H]1C(=O)NC1CC1` [2-G06, (3R)-N-cyclopropyl-2-(prop-2-enoyl)-1,2,3,4-tetrahydroisoquinoline-3-carboxamide], 101%.
The result for `C=CC(=O)N(Cc1cnn(C2CCC2)c1)C1CCCc2occc21` (stereo not drawn) [2-G07, N-[(1-cyclobutyl-1H-pyrazol-4-yl)methyl]-N-(4,5,6,7-tetrahydro-1-benzofuran-4-yl)prop-2-enamide] reads 103%; that for `C=CC(=O)NCCc1cscn1` [2-G08, N-[2-(1,3-thiazol-4-yl)ethyl]prop-2-enamide], 87.1%; that for `C=CC(=O)N(C)Cc1cccc(Cl)c1` [2-G09, N-[(3-chlorophenyl)methyl]-N-methylprop-2-enamide], 60.6%.
With `C=CC(=O)N1CCC(C(=O)NCc2c[nH]cn2)CC1` [2-G10, N-[(1H-imidazol-4-yl)methyl]-1-(prop-2-enoyl)piperidine-4-carboxamide], the viability at 48 h, 25 µM amounted to 98.7%.
The value for `C=CC(=O)Nc1cc(NC(=O)c2cnn(-c3ccccc3)c2)ccc1F` [2-G11, N-[4-fluoro-3-(prop-2-enamido)phenyl]-1-phenyl-1H-pyrazole-4-carboxamide] was 0.749%.
The result for `C=CC(=O)NCCC(=O)Nc1c(C)c(C)nn1C` [2-G12, N-{2-[(1,3,4-trimethyl-1H-pyrazol-5-yl)carbamoyl]ethyl}prop-2-enamide] reads 93%; that for `C=CC(=O)N(Cc1c(C)nn(CC)c1C)c1ccc2c(c1)COC2` [2-G13, N-(1,3-dihydro-2-benzofuran-5-yl)-N-[(1-ethyl-3,5-dimethyl-1H-pyrazol-4-yl)methyl]prop-2-enamide], 80.2%.
The result for `C=CC(=O)N(CC)CC(=O)N1CCCC(F)(F)C1` [2-G14, N-[2-(3,3-difluoropiperidin-1-yl)-2-oxoethyl]-N-ethylprop-2-enamide] reads 97.5%; that for `C=CC(=O)N1CCC(NC(C)=O)(c2noc(C)n2)C1` (stereo not drawn) [2-G16, N-[3-(5-methyl-1,2,4-oxadiazol-3-yl)-1-(prop-2-enoyl)pyrrolidin-3-yl]acetamide], 94.8%.
Regarding `C=CC(=O)NC1CCOCC1` [2-G17, N-(oxan-4-yl)prop-2-enamide], the viability at 48 h, 25 µM is 93.3%.
The value for `C=CC(=O)N1CCC(c2ncc(C(=O)O)o2)CC1` [2-G19, 2-[1-(prop-2-enoyl)piperidin-4-yl]-1,3-oxazole-5-carboxylic acid] was 101%; that for `C=CC(=O)N1CCC(Cc2noc(C)n2)CC1` [2-G22, 1-{4-[(5-methyl-1,2,4-oxadiazol-3-yl)methyl]piperidin-1-yl}prop-2-en-1-one] was 103%.
The value for `C=CC(=O)NCc1cn(C)nc1-c1ccccn1` [2-H03, N-{[1-methyl-3-(pyridin-2-yl)-1H-pyrazol-4-yl]methyl}prop-2-enamide] was 79.4%; that for `C=CC(=O)N1CCC(C(=O)Nc2cccc(N3CCCC3=O)c2)CC1` [2-H04, N-[3-(2-oxopyrrolidin-1-yl)phenyl]-1-(prop-2-enoyl)piperidine-4-carboxamide] was 84.3%; that for `C=CC(=O)N1CCC(C(=O)NCCC2CCS(=O)(=O)C2)CC1` (stereo not drawn) [2-H05, N-[2-(1,1-dioxo-1lambda6-thiolan-3-yl)ethyl]-1-(prop-2-enoyl)piperidine-4-carboxamide] was 78.2%.
The value for `C=CC(=O)NCc1nonc1C` [2-H07, N-[(4-methyl-1,2,5-oxadiazol-3-yl)methyl]prop-2-enamide] was 57.6%.
As for `C=CC(=O)N(CC)CC(=O)N1CCc2c(ncn2CC)C1` [2-H08, N-ethyl-N-(2-{1-ethyl-1H,4H,5H,6H,7H-imidazo[4,5-c]pyridin-5-yl}-2-oxoethyl)prop-2-enamide], the viability at 48 h, 25 µM stood at 84.8%.
The value for `C=CC(=O)N1CCC(C(=O)N2CCC(CC(=O)N(C)C)CC2)CC1` [2-H09, N,N-dimethyl-2-{1-[1-(prop-2-enoyl)piperidine-4-carbonyl]piperidin-4-yl}acetamide] was 61.5%; that for `C=CC(=O)N1CCC(C(=O)Nc2cnn(COC)c2)CC1` [2-H10, N-[1-(methoxymethyl)-1H-pyrazol-4-yl]-1-(prop-2-enoyl)piperidine-4-carboxamide] was 79%.
The value for `C=CC(=O)N(C)Cc1nnc(C2CC2)n1C` [2-H11, N-[(5-cyclopropyl-4-methyl-4H-1,2,4-triazol-3-yl)methyl]-N-methylprop-2-enamide] was 72.8%.
For the compound `C=CC(=O)N1CCC(C(=O)Nc2ccn(CC(=O)N(C)C)n2)CC1` [2-H12, N-{1-[(dimethylcarbamoyl)methyl]-1H-pyrazol-3-yl}-1-(prop-2-enoyl)piperidine-4-carboxamide], the viability at 48 h, 25 µM came out at 71%.
The result for `C=CC(=O)NC(C)c1ccc(Oc2ccccc2)c(F)c1` (stereo not drawn) [2-H13, N-[1-(3-fluoro-4-phenoxyphenyl)ethyl]prop-2-enamide] reads 68.8%; that for `C=CC(=O)N1CCC(C(=O)N2CCC(C(C)(C)O)CC2)CC1` [2-H14, 1-{4-[4-(2-hydroxypropan-2-yl)piperidine-1-carbonyl]piperidin-1-yl}prop-2-en-1-one], 60.8%; that for `C=CC(=O)NCCC1COCCO1` (stereo not drawn) [2-H15, N-[2-(1,4-dioxan-2-yl)ethyl]prop-2-enamide], 74.3%.
The result for `C=CC(=O)N1CCC(C)C1` (stereo not drawn) [2-H17, 1-(3-methylpyrrolidin-1-yl)prop-2-en-1-one] reads 71.5%.
`C=CC(=O)N1CCC(C(=O)N2CCC(NC(=O)NC)CC2)CC1` [2-H18, 3-methyl-1-{1-[1-(prop-2-enoyl)piperidine-4-carbonyl]piperidin-4-yl}urea]: the viability at 48 h, 25 µM turned out to be 83%.
The value for `C=CC(=O)NC(C(N)=O)c1ccccc1F` (stereo not drawn) [2-H19, N-[carbamoyl(2-fluorophenyl)methyl]prop-2-enamide] was 51.9%; that for `C=CC(=O)N(C)CC(=O)N1CCC(c2nc(-c3ccccc3)n[nH]2)CC1` [2-H20, N-methyl-N-{2-oxo-2-[4-(3-phenyl-1H-1,2,4-triazol-5-yl)piperidin-1-yl]ethyl}prop-2-enamide] was 67.6%; that for `C=CC(=O)N1CC[C@H](NS(C)(=O)=O)C1` [2-H21, N-[(3S)-1-(prop-2-enoyl)pyrrolidin-3-yl]methanesulfonamide] was 60.7%.
The result for `C=CC(=O)Nc1cc(NC(=O)[C@H]2C[C@@H](C(C)=O)C2(C)C)ccc1F` [2-H22, (1S,3R)-3-acetyl-N-[4-fluoro-3-(prop-2-enamido)phenyl]-2,2-dimethylcyclobutane-1-carboxamide] reads 97.4%.
